Converted amounts (≈) assume the structure as drawn.
How the values were obtained:
Staphylococcus aureus = experiment: Antibacterial activity against Staphylococcus aureus L100 assessed as inhibition of bacterial growth at 10 hrs by plate reader analysis; format: functional
Escherichia coli = experiment: Antibacterial activity against Escherichia coli L4242 harboring delta tolC mutant assessed as inhibition of bacterial growth at 10 hrs by plate reader analysis; format: functional
Enterococcus faecium = experiment: Antibacterial activity against Enterococcus faecium L568 assessed as inhibition of bacterial growth at 10 hrs by plate reader analysis; format: functional
[1] = Cytotoxicity against HEK293 cells assessed as reduction in cell viability incubated for 24 hrs by alamar blue assay; format: toxicity, cell-based; conditions: human
Pseudomonas aeruginosa = experiment: Antibacterial activity against Pseudomonas aeruginosa ATCC 27853 assessed as inhibition of bacterial growth at 10 hrs by plate reader analysis; format: functional
Micrococcus luteus = experiment: Antibacterial activity against Micrococcus luteus L108 assessed as inhibition of bacterial growth at 10 hrs by plate reader analysis; format: functional
Streptococcus pneumoniae = experiment: Antibacterial activity against Streptococcus pneumoniae L44 assessed as inhibition of bacterial growth at 10 hrs by plate reader analysis; format: functional
[2] = Cytotoxicity against human Caco-2 cells assessed as reduction in cell viability incubated for 24 hrs by alamar blue assay; format: toxicity, cell-based

For COC(=O)c1cccc2nc3c([C@@H](SC[C@H](NC(C)=O)C(=O)O)[C@@H](CCCCC(C)C)C(=O)OC)cccc3nc12, the MIC (Staphylococcus aureus) was 43 µM (≈ 25.1 µg/mL), the MIC (Escherichia coli) was 291 µM (≈ 170 µg/mL) and the MIC (Enterococcus faecium) was 428 µM (≈ 250 µg/mL). For the same compound, the IC50 at 24 h [1] was > 220 µM, the MIC (Pseudomonas aeruginosa) was 428 µM (≈ 250 µg/mL) and the MIC (Micrococcus luteus) was 68 µM (≈ 39.7 µg/mL). It also gave an MIC (Streptococcus pneumoniae) of 12 µM (≈ 7 µg/mL) and an IC50 at 24 h [2] of 154 µM.
